# Data from patent US12509444B2, “Compounds and methods for CD73 modulation and indications therefor” (Plexxikon Inc., priority 2019, dated 2025).
# Tests used:
# human CD73 = biological target: T1, human CD73 (Homo sapiens, UniProt P21589); assay: Inhibitor activity against CD73 in cell based assay (CD73 expressing CHO-K1 cells); details: CHO-K1 cells expressing human CD73, 150 μM AMP, 4 hours of incubation; read-out: CHO-K1 CELL VARIANT: CD73 IC50
# T1 construct: expressed in transfected cells
# T1 sequence (P21589 27-549): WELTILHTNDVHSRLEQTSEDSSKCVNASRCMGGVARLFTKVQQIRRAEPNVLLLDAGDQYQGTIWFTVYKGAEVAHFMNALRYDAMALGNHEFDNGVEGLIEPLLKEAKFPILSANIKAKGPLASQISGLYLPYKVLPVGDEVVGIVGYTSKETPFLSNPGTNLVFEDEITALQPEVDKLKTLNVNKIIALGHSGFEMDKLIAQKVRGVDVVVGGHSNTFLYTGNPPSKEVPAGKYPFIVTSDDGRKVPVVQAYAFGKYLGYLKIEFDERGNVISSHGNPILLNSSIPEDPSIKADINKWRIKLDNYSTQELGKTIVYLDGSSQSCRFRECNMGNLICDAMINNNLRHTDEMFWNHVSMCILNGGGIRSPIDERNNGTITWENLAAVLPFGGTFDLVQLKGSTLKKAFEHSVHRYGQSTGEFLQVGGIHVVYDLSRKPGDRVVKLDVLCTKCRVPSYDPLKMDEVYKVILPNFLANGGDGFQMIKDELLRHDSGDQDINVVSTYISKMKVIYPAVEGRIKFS
# Summary of the method: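 Residual supernatant AMP was quantified via CellTiter-Glo luminescence (1 μM ATP added, 30 min, room temperature) after a 4 h exposure of human CD73-expressing CHO-K1 cells to 150 μM AMP plus compound, top final 10 μM, 8 points. IC50 came from nonlinear regression of percent inhibition.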
# [1] = biological target: T2, Human CD73 (amino acid residues 27-549) (Homo sapiens, UniProt P21589); assay: CD73 enzymatic assay (luciferase-based indirect assay, CellTiter-Glo); type: biochemical; details: 0.4 nM CD73, 150 μM AMP, 1 hour at room temperature
# T2 construct: Human CD73 (amino acid residues 27-549); His tag (N); made in house; host or cells: E. coli
# T2 sequence (P21589 27-549): T1 sequence (P21589 27-549)
# Summary of the method: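 Residual AMP inhibits luciferase, so luminescence reports CD73 turnover; read with CellTiter-Glo 2.0 plus 1 μM final ATP, 30 min. Reaction used 0.4 nM N-His CD73 (27-549, E. coli), 150 μM AMP, HEPES pH 7.4 with Tween 20, 1 h at room temperature. IC50 fitted by nonlinear regression.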
Structure (SMILES),IC50 (human CD73),IC50 [1]
"COc1ccc(S(=O)(=O)C[C@H]2CC[C@H](NC(=O)O[C@@H]3CCN(c4cn[nH]c(=O)c4Cl)C3)CC2)cc1 [P-0366, (R)-1-(5-chloro-6-oxo-1,6-dihydropyridazin-4-yl)pyrrolidin-3-yl ((1r,4R)-4-(((4-methoxyphenyl)sulfonyl)methyl)cyclohexyl)carbamate]",0.001 to 10 µM,0.001 to 10 µM
"O=C(N[C@@H]1CC[C@H]1C(F)(F)F)O[C@@H]1CCN(c2cn[nH]c(=O)c2Cl)C1 [P-0367, (R)-1-(5-chloro-6-oxo-1,6-dihydropyridazin-4-yl)pyrrolidin-3-yl ((1R,2R)-2-(trifluoromethyl)cyclobutyl) carbamate]",0.001 to 10 µM,0.001 to 10 µM
"O=C(N[C@H]1C[C@@](O)(C(F)(F)F)C1)O[C@@H]1CCN(c2cn[nH]c(=O)c2Cl)C1 [P-0368, (R)-1-(5-chloro-6-oxo-1,6-dihydropyridazin-4-yl)pyrrolidin-3-yl ((1r,3r)-3-hydroxy-3-(trifluoromethyl)cyclobutyl)carbamate]",0.001 to 10 µM,0.001 to 10 µM
"O=C(NC1CCN(C(=O)c2ccccc2)CC1)O[C@@H]1CCN(c2cn[nH]c(=O)c2Cl)C1 [P-0369, (R)-1-(5-chloro-6-oxo-1,6-dihydropyridazin-4-yl)pyrrolidin-3-yl (1-benzoylpiperidin-4-yl)carbamate]",0.001 to 10 µM,0.001 to 10 µM
"O=C(NC1CCN(C(=O)C2CCC2)CC1)O[C@@H]1CCN(c2cn[nH]c(=O)c2Cl)C1 [P-0370, (R)-1-(5-chloro-6-oxo-1,6-dihydropyridazin-4-yl)pyrrolidin-3-yl (1-(cyclobutanecarbonyl)piperidin-4-yl)carbamate]",0.001 to 10 µM,0.001 to 10 µM
"O=C(NC1CCN(C(=O)c2ccno2)CC1)O[C@@H]1CCN(c2cn[nH]c(=O)c2Cl)C1 [P-0371, (R)-1-(5-chloro-6-oxo-1,6-dihydropyridazin-4-yl)pyrrolidin-3-yl (1-(isoxazole-5-carbonyl)piperidin-4-yl)carbamate]",0.001 to 10 µM,0.001 to 10 µM
"CC(C)C(=O)N1CCC(NC(=O)O[C@@H]2CCN(c3cn[nH]c(=O)c3Cl)C2)CC1 [P-0372, (R)-1-(5-chloro-6-oxo-1,6-dihydropyridazin-4-yl)pyrrolidin-3-yl (1-isobutyrylpiperidin-4-yl)carbamate]",0.001 to 10 µM,0.001 to 10 µM

# Further lines, results first:
IC50 (human CD73),IC50 [1],Structure (SMILES)
0.001 to 10 µM,0.001 to 10 µM,"N#CC1(NC(=O)O[C@@H]2CCN(c3cn[nH]c(=O)c3Cl)C2)CCCC1 [P-0361, (R)-1-(5-chloro-6-oxo-1,6-dihydropyridazin-4-yl)pyrrolidin-3-yl (1-cyanocyclopentyl)carbamate]"
0.001 to 10 µM,0.001 to 10 µM,"O=C(NC1(c2ccc(F)cc2)CC1)O[C@@H]1CCN(c2cn[nH]c(=O)c2Cl)C1 [P-0362, (R)-1-(5-chloro-6-oxo-1,6-dihydropyridazin-4-yl)pyrrolidin-3-yl (1-(4-fluorophenyl)cyclopropyl) carbamate]"
0.001 to 10 µM,0.001 to 10 µM,"C=Cc1c(N2CC[C@@H](OC(=O)NC3CCCC3)C2)cn[nH]c1=O [P-0363, (R)-1-(6-oxo-5-vinyl-1,6-dihydropyridazin-4-yl)pyrrolidin-3-yl cyclopentylcarbamate]"
0.001 to 10 µM,0.001 to 10 µM,"O=C(N[C@H]1CC[C@H](NC(=O)c2ccccc2)C1)O[C@@H]1CCN(c2cn[nH]c(=O)c2Cl)C1 [P-0364, (R)-1-(5-chloro-6-oxo-1,6-dihydropyridazin-4-yl)pyrrolidin-3-yl ((1S,3S)-3-benzamidocyclopentyl) carbamate]"
0.001 to 10 µM,0.001 to 10 µM,"O=C(N[C@H]1CC[C@H](NS(=O)(=O)c2ccccc2F)C1)O[C@@H]1CCN(c2cn[nH]c(=O)c2Cl)C1 [P-0365, (R)-1-(5-chloro-6-oxo-1,6-dihydropyridazin-4-yl)pyrrolidin-3-yl ((1S,3S)-3-((2-fluorophenyl)sulfonamido)cyclopentyl)carbamate]"
